Results taken from patent publication US20120035320A1, “POLYACRIDINE NUCLEIC ACID DELIVERY PEPTIDE COMPLEXES” (University of Iowa Research Foundation, priority 2010, published 2012).
“Also recorded” adds a separate entry of the source. Read-outs that look alike come from different tables or passages of the source. No end group written: not given here. *: point of attachment. 6‑(9-acridinylamino)hexanoyl = O=C(CCCCCNc1c2ccccc2nc2ccccc12)*; Acr = acridine on the lysine ε-amine; PEG = not defined here

Key:
Erythrocytes = experiment: RBC hemolysis assay; assay type: cell-based, mice; conditions: for hemolytic activity when combined with pGL3: pH 7.4, peptide DNA polyplex 1.5 nmols and 7.5 μg pGL3
Procedure: Whole blood was obtained from male ICR mice by heart puncture with heparinized 22 G needles and collected in conical tubes containing 10 ml of 0.15 M PBS (pH 7.4) prewarmed to 37° C. Erythrocytes were immediately separated from plasma by centrifugation at 2000 rpm for 2 min, washed three times with 10 ml of PBS, and then diluted to 1.5×10^8 cells/ml. Peptides were prepared at 15 μM and serially diluted to 10-0.01 μM, after which 100 μl was pipetted in triplicate into a MultiScreenHTS BV 96 well plate. Erythrocytes (50 μl, 7.5×10^6 cells) were added to the peptides and incubated at 37° C. for 1 h followed by filtration on a Multiscreen vacuum manifold (Millipore Corporation, Billerica, Mass.). The filtrate was measured for Abs410nm on a Biotech plate reader (Biotech Instruments Incorporated., Winooski, Vt.) and compared to the 100% hemolysis caused by replacing PBS with water. Peptide DNA polyplexes (1.5 nmols and 7.5 μg pGL3) were also assayed for hemolysis as described above.

pGL3 [1] = experiment: thiazole orange fluorophore exclusion assay of polyacridine-melittin peptides; assay type: binding; conditions: pGL3, 0.1 μM thiazole orange
Procedure: The relative binding affinity of peptides for DNA was determined by a fluorophore exclusion assay (Rich, D. H., Gesellchen, P. D., Tong, A., Cheung, A., and Buckner, C. K. (1975) Alkylating derivatives of amino acids and peptides. Synthesis of N-maleoylamino acids, [1-(N-maleoylglycyl)cysteinyl]oxytocin, and [1-(N-maleoyl-11-aminoundecanoyl)cysteinyl]oxytocin. Effects on vasopressin-stimulated water loss from isolated toad bladder. J. Med. Chem. 18, 1004-1010). pGL3 (200 μl of 4 μg/ml in 5 mM Hepes pH 7.5 containing 0.1 μM thiazole orange) was combined with 0, 0.05, 0.1, 0.25, 0.35, 0.5, 1, and 2 nmols of peptide in 300 μl of Hepes and allowed to bind at RT for 30 min. Thiazole orange fluorescence was measured using an LS50B fluorometer (Perkin-Elmer, U.K.) by exciting at 498 nm while monitoring emission at 546 nm with the slit widths set at 10 nm. A fluorescence blank of thiazole orange in the absence of DNA was subtracted from all values before data analysis. The data is presented as nmol of peptide per μg of DNA versus the percent fluorescence intensity±the standard deviation determined by three independent measurements.

[2] = particle size and zeta potential of polyacridine PEG-peptide DNA open polyplexes; assay type: physicochemical; conditions: for apparent particle diameter: QELS, 0.2 nmols per μg of DNA or higher
Procedure: Polyacridine PEG-peptide DNA polyplexes were formed by combining 10 μg of pGL3 (in 500 μl of 5 mM Hepes pH 7.4) with an equal volume containing either 1, 2, 4, 8, 12, 16, or 20 nmol of polyacridine PEG-peptide while vortexing. The polyplexes were equilibrated at RT for 30 min prior to analysis of particle size (QELS) and zeta potential using a Brookhaven ZetaPlus (Brookhaven Instruments, Holtsville, N.Y.). The particle size diameter and zeta potential are reported as the mean and standard deviation of ten measurements.

pGL3 [3] = experiment: gel band shift assay of acridine PEGs and polyacridine PEG-peptides; assay type: binding; conditions: constant stoichiometry of 1 nmol per μg of DNA
Procedure: The samples were loaded onto a 1% agarose gel (50 ml) and electrophoresed in TAE buffer at 80 V for 90 min. […] The samples were applied to a 1% agarose gel and electrophoresed as described above.

[4] = system: gastrocnemius muscle of ICR male mice; experiment: intramuscle-electroporation dosing and bioluminescence imaging; assay type: in vivo; conditions: IM-EP
Procedure: Male ICR mice (Harlan), weighing 25-30 g were prepared for IM-EP dosing by anesthetization with an intraperitoneal dose of 200 μl of ketamine/xylazine (20 mg/ml and 2 mg/ml, respectively). The hamstring muscles were sheared and swabbed with 70% ethanol prior to administering a 50 μl dose over 10 sec in normal saline to both gastrocnemius muscles in 2 mice by a 1 ml monoject syringe (1 cc, 28 G×½). After dosing the BTX 2-Needle Array Electrode was inserted into the skin with the electrodes straddling the dosing site. Successive electronic stimulation was generated by the EMC BTX 830, Square-wave Pulse Generator (BTX, Harvard Apparatus) as the power source. At 1 min post-administration of the DNA dose, the pulse generator delivered six successive 100 V pulses over 20 msec with a 100 msec interval between pulses (31).
Luciferase reporter gene expression was quantified by bioluminescence imaging (BLI) at 2-14 days following IM-EP using an IVIS Imaging System 200 Series (Xenogen) (Wu, J. C., Sundaresan, G., Iyer, M., and Gambhir, S. S. (2001) Noninvasive optical imaging of firefly luciferase reporter gene expression in skeletal muscles of living mice. Molecular Therapy: the Journal of the American Society of Gene Therapy 4, 297-306). Mice were anesthetized by isofluorane (2% flow with oxygen) and dosed intramuscularly with 40 μL of 30 mg per ml D-Luciferin (GoldBio). Bioluminescent images were acquired 5 min post substrate administration and acquired for 1 min with a 24.6 cm field of view. The resultant grayscale images with a colormap overlay were analyzed using the Igor Pro 4.09 software (Livinglmage). Luciferase expression is reported as photons/sec/cm^2/steradian within a uniformly defined region of interest.

liver = experiment: hydrodynamic stimulation and bioluminescence imaging of luciferase expression; assay type: in vivo, mice; conditions: tail vein 1 μg pGL3 in complex with 0.5 nmol peptide; HD stimulation 30 min after DNA
Procedure: pGL3 (1 μg) was prepared in a volume of normal saline corresponding to 9 wt/vol % of the mouse's body weight (1.8-2.25 ml based on 20-25 g mice). The DNA dose was administered by tail vein to 4-5 mice in 5 sec according to a published procedure (Liu F, Song Y, Liu D. Hydrodynamics-based transfection in animals by systemic administration of plasmid DNA. Gene Ther 1999; 6: 1258-1266; Zhang G, Budker V, Wolff J A. High levels of foreign gene expression in hepatocytes after tail vein injections of naked plasmid DNA. Human Gene Therapy 1999; 10: 1735-1737). Mice (4-5) were also dosed tail vein with 1 μg of PEGylated polyacridine polyplex in 50 μl of HBM (5 mM Hepes, 0.27 M mannitol, pH 7.4). At times ranging from 5-120 min, a stimulatory hydrodynamic dose of normal saline (9 wt/vol % of the body weight) was administered over 5 sec. At 24 hrs post-DNA dose, mice were anesthetized by 3% isofluorane, then administered an i.p. dose of 80 μl (2.4 mg) of D-luciferin (30 μg/μl in phosphate-buffered saline). At 5 min following the D-luciferin dose, mice were imaged for bioluminescence (BLI) on an IVIS Imaging 200 Series (Xenogen). BLI was performed in a light-tight chamber on a temperature-controlled, adjustable stage while isofluorane was administered by a gas manifold at a flow rate of 3%. Images were acquired at a ‘medium’ binning level and a 20 cm field of view. Acquisition times were varied (1 sec^−1 min) depending on the intensity of the luminescence. The Xenogen system reported bioluminescence as photons/sec/cm^2/seradian in a 2.86 cm diameter region of interest covering the liver. The integration area was transformed to pmols of luciferase in the liver using a previously reported standard curve (Rettig G et al. Quantitative Bioluminscence Imaging of Transgene Expression In Vivo. Analytical Biochemistry 2006; 335: 90-94). The results were determined to be statistically significant (p≦0.05) based on a two-tailed unpaired t-test.

[5] = RBC hemolysis at pH 5.0, second value of the cell (pH 7.4:5.0), read-out: HL50 (μM) pH 5.0
[6] = RBC hemolysis at pH 7.4, first value of the cell (pH 7.4:5.0), read-out: HL50 (μM) pH 7.4

Compound | EC50 (Erythrocytes; [5]) [µM] | EC50 (Erythrocytes; [6]) [µM] | hemolytic activity when combined with pGL3 (Erythrocytes) | DNA band shift on agarose gel (pGL3 [3]) | further results
CC[C@H](C)[C@H](NC(=O)CN)C(=O)NCC(=O)N[C@@H](C)C(=O)N[C@H](C(=O)N[C@@H](CC(C)C)C(=O)N[C@@H](CCCCN)C(=O)N[C@H](C(=O)N[C@@H](CC(C)C)C(=O)N[C@H](C(=O)N[C@H](C(=O)NCC(=O)N[C@@H](CC(C)C)C(=O)N1CCC[C@H]1C(=O)N[C@@H](C)C(=O)N[C@@H](CC(C)C)C(=O)N[C@H](C(=O)N[C@@H](CO)C(=O)N[C@@H](Cc1c[nH]c2ccccc12)C(=O)N[C@H](C(=O)N[C@@H](CCCCN)C(=O)N[C@@H](CCCNC(=N)N)C(=O)N[C@@H](CCCCN)C(=O)N[C@@H](CCCNC(=N)N)C(=O)N[C@@H](CCC(N)=O)C(=O)N[C@@H](CCC(N)=O)C(N)=O)[C@@H](C)CC)[C@@H](C)CC)[C@@H](C)O)[C@@H](C)O)C(C)C)C(C)C [Melittin, reference compound] | 2.3 | 0.9 | nearly unchanged | – | –
(CWKKGIGAVLKVLTTGLPALISLIKRKRQQ)2 [Dimeric-melittin] | 1.2 | 1 | – | – | –
(m)GWKKGIGAVLKVLTTGLPALISLIKRKRQQ [Mal-melittin] | 4.8 | 3.84 | maintained their hemolytic activity | – | –
CWKKGIGAVLKVLTTGLPALISLIKRKRQQ [Cys-melittin] | 0.7 | 1 | maintained their hemolytic activity; also recorded: nearly unchanged | – | thiazole orange displacement, asymptote / equivalence point of fluorescence intensity (pGL3 [1]): approximately 0.5 nmols of peptide per μg of DNA
Lys(Acr)-Arg-Lys(Acr)-Arg-Lys(Acr)-Arg-Lys(Acr)-Arg-Cys (K(Acr)RK(Acr)RK(Acr)RK(Acr)RC) [poly(Acr-Arg)4-Cys] | > 10 | > 10 | – | – | thiazole orange displacement, asymptote / equivalence point of fluorescence intensity (pGL3 [1]): approximately 0.4 nmols of peptide per μg of DNA; thiazole orange displacement, asymptote / equivalence point of fluorescence intensity (pGL3 [1]; listed as (Acr-Arg)4-Cys): 0.35 nmols of peptide per μg of DNA
PEG-Cys-Trp-(Lys(Acr))3: PEG5000 Da-maleimide on Cys of Cys-Trp-Lys3, Lys ε-amines conjugated with 6-(9-acridinylamino) hexanoic acid; SEQ ID NO: 3 (C(PEG 5000 Da maleimide)WK(6‑(9-acridinylamino)hexanoyl)K(6‑(9-acridinylamino)hexanoyl)K(6‑(9-acridinylamino)hexanoyl)) | – | – | – | further retarded DNA migration | apparent particle diameter [2]: approximately 200 nm; apparent particle diameter ([2]; listed as PEG-Cys-(Lys(Acr))3): 200 nm; zeta potential over titration ([2]; titrating with 0.1 to 2 nmol per μg of DNA): −15 to −5 mV
PEG-Cys-Trp-(Lys(Acr))4: PEG5000 Da-maleimide on Cys of Cys-Trp-Lys4, Lys ε-amines conjugated with 6-(9-acridinylamino) hexanoic acid; SEQ ID NO: 4 (C(PEG 5000 Da maleimide)WK(6‑(9-acridinylamino)hexanoyl)K(6‑(9-acridinylamino)hexanoyl)K(6‑(9-acridinylamino)hexanoyl)K(6‑(9-acridinylamino)hexanoyl)) | – | – | – | further retarded DNA migration | –
PEG-Cys-Trp-(Lys(Acr))5: PEG5000 Da-maleimide on Cys of Cys-Trp-Lys5, Lys ε-amines conjugated with 6-(9-acridinylamino) hexanoic acid; SEQ ID NO: 5 (C(PEG 5000 Da maleimide)WK(6‑(9-acridinylamino)hexanoyl)K(6‑(9-acridinylamino)hexanoyl)K(6‑(9-acridinylamino)hexanoyl)K(6‑(9-acridinylamino)hexanoyl)K(6‑(9-acridinylamino)hexanoyl)) | – | – | – | complete retardation of DNA migration | zeta potential asymptote ([2]; at 1 nmol per μg of DNA): −5 mV; luciferase expression at day 2, fold decrease versus pGL3 ([4]; formulation 0.2 nmol per μg of DNA, 1 μg pGL3, mice): 100 fold; luciferase expression at day 2 compared with pGL3 ([4]; open polyplex 2 nmol per μg of DNA, 1 μg pGL3, mice): identical expression levels; luciferase expression at day 2, fold lower than pGL3 ([4]; open polyplex 4 nmol per μg of DNA, 1 μg pGL3, mice): approximately 10 fold; loss in expression across the 14 day sampling period ([4]; open polyplexes 4 nmol per μg of DNA, mice): 2-3 fold; decrease of expression over 14 days ([4]; open polyplexes 0.2 and 2 nmol per μg of DNA, mice): 10 fold
PEG-Cys-Trp-(Lys)5: PEGylated Cys-Trp-Lys5 without acridine, SEQ ID NO: 19 (C(PEG)WKKKKK; reading uncertain; also: PEG5000 Da maleimide on Cys, printed as PEG-Cys-Trp-(Lys)5) | – | – | – | unable to cause a band DNA shift | –
PEGylated-SS-(Acr-Arg)4: (Acr-Arg)4-Cys with Cys thiol reacted with 5 kDa PEG-OPSS, reducible disulfide linkage | – | – | – | – | BLI luciferase expression in liver at 24 hr (liver): approximately 10^7 photons/sec/cm^2/sr
